The results in this text go back to patent publication US20220332708A1 (Cytokinetics, Inc., priority 2021, published 2022).

This assay deals with Bovine cardiac myofibrils. The assay is described as follows: Dose-dependent myofibril ATPase modulation (calcium-buffered, pyruvate kinase and lactate dehydrogenase-coupled ATPase assay at pCa25). In kind it is biochemical. Conditions: concentration at which ATPase activity was 1.4-fold higher than the bottom of the dose curve, mean of a minimum of two independent tests. The essentials: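 Detergent-skinned bovine cardiac myofibrils (typically 0.25-1.0 mg/ml) in a pyruvate kinase/lactate dehydrogenase-coupled ATPase assay, 1 mM ATP, pH 6.80, free Ca2+ set by EGTA buffer to pCa25. ATP hydrolysis followed by A340; 4-parameter fit, AC1.4 as mean of at least two independent tests.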
As to `Cc1[nH]c(S(=O)(=O)NC23COc4cc(F)c(Cl)cc4C2C3)cc1C(=O)N1CC(C#N)C1` (stereo not shown) [Compound 81, N-(6-chloro-5-fluoro-1,7b-dihydrocyclopropa[c]chromen-1a(2H)-yl)-4-(3-cyanoazetidine-1-carbonyl)-5-methyl-1H-pyrrole-2-sulfonamide], the AC1.4 was determined as 1.194 µM.

Regarding `Cc1[nH]c(S(=O)(=O)N[C@@H]2Cc3cc(Cl)c(Cl)cc3[C@@]2(C)O)cc1C(=O)N1CC(C)(C#N)C1` [Compound 82, 4-(3-cyano-3-methylazetidine-1-carbonyl)-N-((1R,2R)-5,6-dichloro-1-hydroxy-1-methyl-2,3-dihydro-1H-inden-2-yl)-5-methyl-1H-pyrrole-2-sulfonamide], the AC1.4 was 0.6173 µM.

For the compound `Cc1cc(S(=O)(=O)N[C@@H]2COc3cc(F)c(Cl)cc3[C@@H]2O)cc(N2CC(C#N)C2)n1` [Compound 85, N-((3R,4S)-6-chloro-7-fluoro-4-hydroxychroman-3-yl)-2-(3-cyanoazetidin-1-yl)-6-methylpyridine-4-sulfonamide], the AC1.4 was determined as 1.3618 µM.

As to `Cc1cc(S(=O)(=O)N[C@@H]2COc3cc(F)c(Cl)cc3[C@@H]2O)cc(N2CC(O)C2)n1` [Compound 86, N-((3R,4S)-6-chloro-7-fluoro-4-hydroxychroman-3-yl)-2-(3-hydroxyazetidin-1-yl)-6-methylpyridine-4-sulfonamide], the AC1.4 turned out to be 13.53 µM.

Consider `Cc1cc(S(=O)(=O)N[C@@H]2COc3cc(F)c(Cl)cc3[C@@H]2O)cc(N2CC(C)(C)C2)n1` [Compound 87, N-((3R,4S)-6-chloro-7-fluoro-4-hydroxychroman-3-yl)-2-(3,3-dimethylazetidin-1-yl)-6-methylpyridine-4-sulfonamide], for which the AC1.4 came to 3.783 µM.

For `Cc1cc(S(=O)(=O)N[C@@H]2COc3cc(F)c(Cl)cc3[C@@H]2O)cc(N2CC(OC(F)F)C2)n1` [Compound 88, N-((3R,4S)-6-chloro-7-fluoro-4-hydroxychroman-3-yl)-2-(3-(difluoromethoxy)azetidin-1-yl)-6-methylpyridine-4-sulfonamide], the AC1.4 turned out to be 2.209 µM.

Consider `Cc1[nH]c(S(=O)(=O)N[C@@H]2Cc3cc(F)c(Cl)cc3[C@H]2O)cc1C(=O)N1CC(C)(C#N)C1` [Compound 89], for which the AC1.4 was 0.2521 µM.

Consider `Cc1cc(S(=O)(=O)N[C@@H]2COc3cc(F)c(Cl)cc3[C@@H]2O)cc(N2CC(C(F)F)C2)n1` [Compound 90], for which the AC1.4 is 5.312 µM.

As for `Cc1cc(S(=O)(=O)N[C@@H]2COc3cc(F)c(Cl)cc3[C@@H]2O)cc(N2CC[C@@H](C#N)C2)n1` [Compound 91, N-((3R,4S)-6-chloro-7-fluoro-4-hydroxychroman-3-yl)-2-((R)-3-cyanopyrrolidin-1-yl)-6-methylpyridine-4-sulfonamide], the AC1.4 amounted to 1.417 µM.

Turning to `Cc1[nH]c(S(=O)(=O)N[C@@H]2Cc3cc(F)c(Cl)cc3C2)cc1C(=O)N1CC(C(F)(F)F)C1` [Compound 93, (R)-N-(5-chloro-6-fluoro-2,3-dihydro-1H-inden-2-yl)-5-methyl-4-(3-(trifluoromethyl)azetidine-1-carbonyl)-1H-pyrrole-2-sulfonamide], the AC1.4 was 0.1626 µM.

As to `Cc1[nH]c(S(=O)(=O)N[C@@H]2Cc3cc(F)c(Cl)cc3C2)cc1C(=O)N1CC(OC(F)(F)F)C1` [Compound 94, (R)-N-(5-chloro-6-fluoro-2,3-dihydro-1H-inden-2-yl)-5-methyl-4-(3-(trifluoromethoxy)azetidine-1-carbonyl)-1H-pyrrole-2-sulfonamide], the AC1.4 is 0.6847 µM.

On to `Cc1[nH]c(S(=O)(=O)N[C@@H]2Cc3cc(F)c(Cl)cc3C2)cc1C(=O)N1CC(C)(O)C1` [Compound 95, (R)-N-(5-chloro-6-fluoro-2,3-dihydro-1H-inden-2-yl)-4-(3-hydroxy-3-methylazetidine-1-carbonyl)-5-methyl-1H-pyrrole-2-sulfonamide], for which the AC1.4 is 0.9577 µM.

Consider `Cc1[nH]c(S(=O)(=O)N[C@@H]2Cc3cc(F)c(Cl)cc3C2)cc1C(=O)N1CC2(COC2)C1` [Compound 96, (R)-N-(5-chloro-6-fluoro-2,3-dihydro-1H-inden-2-yl)-5-methyl-4-(2-oxa-6-azaspiro[3.3]heptane-6-carbonyl)-1H-pyrrole-2-sulfonamide], for which the AC1.4 was determined as 1.218 µM.

With `Cc1[nH]c(S(=O)(=O)N[C@@H]2Cc3cc(F)c(Cl)cc3C2)cc1C(=O)N1CC2(C1)CC(F)(F)C2` [Compound 97, (R)-N-(5-chloro-6-fluoro-2,3-dihydro-1H-inden-2-yl)-4-(6,6-difluoro-2-azaspiro[3.3]heptane-2-carbonyl)-5-methyl-1H-pyrrole-2-sulfonamide], the AC1.4 was determined as 0.2269 µM.

For the compound `[2H]C([2H])([2H])c1[nH]c(S(=O)(=O)N[C@@H]2Cc3cc(F)c(Cl)cc3C2)cc1C(=O)N1CC(OC(F)(F)F)C1` [Compound 98, (R)-N-(5-chloro-6-fluoro-2,3-dihydro-1H-inden-2-yl)-5-(methyl-d3)-4-(3-(trifluoromethoxy)azetidine-l-carbonyl)-1H-pyrrole-2-sulfonamide], the AC1.4 is 0.6667 µM.

For `CNc1cc2c(cc1S(=O)(=O)N[C@H]1C[C@H](Nc3ccccc3)C1)c(=O)[nH]c(=O)n2C` [Compound 100, 1-Methyl-7-(methylamino)-2,4-dioxo-N-((1r,3r)-3-(phenylamino)cyclobutyl)-1,2,3,4-tetrahydroquinazoline-6-sulfonamide], the AC1.4 came out at 5.571 µM.
